Experiments:
[1] = molecular target: 11-beta-hydroxysteroid dehydrogenase 1 (Mus musculus, UniProt P50172); assay: Human and Mouse 11beta-HSD1 SPA Assay
Method: (§1) Enzyme assays were performed using purified recombinant human or mouse11beta-HSD1. The fractional conversion of cortisone to cortisol was used to determine enzyme activities. The radioactive cortisol generated in the assay was captured by a monoclonal anti-cortisol antibody and SPA beads coated with anti-mouse antibodies.

[2] = molecular target: 11-beta-hydroxysteroid dehydrogenase 1 (Homo sapiens, UniProt P28845); assay: Human and Mouse 11beta-HSD1 SPA Assay; conditions: pH 7.2; 22 °C
11-beta-hydroxysteroid dehydrogenase 1 (Homo sapiens, UniProt P28845), sequence (P28845 whole entry): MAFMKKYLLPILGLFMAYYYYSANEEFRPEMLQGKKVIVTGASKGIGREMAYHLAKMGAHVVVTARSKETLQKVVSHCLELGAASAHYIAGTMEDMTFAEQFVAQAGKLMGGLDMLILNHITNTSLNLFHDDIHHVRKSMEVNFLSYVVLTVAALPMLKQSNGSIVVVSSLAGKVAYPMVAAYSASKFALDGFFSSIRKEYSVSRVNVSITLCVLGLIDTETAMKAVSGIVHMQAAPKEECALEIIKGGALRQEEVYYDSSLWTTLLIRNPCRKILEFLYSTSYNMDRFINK
Method: as §1

11-beta-hydroxysteroid dehydrogenase 1 (Mus musculus, UniProt P50172), sequence (P50172 whole entry): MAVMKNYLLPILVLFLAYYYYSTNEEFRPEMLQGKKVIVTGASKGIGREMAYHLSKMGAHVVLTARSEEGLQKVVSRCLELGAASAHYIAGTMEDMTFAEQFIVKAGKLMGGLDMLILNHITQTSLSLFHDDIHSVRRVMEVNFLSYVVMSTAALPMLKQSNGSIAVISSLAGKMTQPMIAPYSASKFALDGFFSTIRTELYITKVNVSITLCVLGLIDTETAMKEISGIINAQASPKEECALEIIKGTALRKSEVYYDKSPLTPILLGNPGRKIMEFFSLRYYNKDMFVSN

Row | SMILES | IC50 [1] [nM] | IC50 [2] [nM]
1 | CNC(=O)NC(=O)[C@@]12CC3C[C@H](C[C@H](C1)[C@H]3NC(=O)C(C)(C)Oc1ccc(Cl)cc1)C2 [2-(4-chlorophenoxy)-2-methyl-N-[(1R,2S,5R,7S)-5-{[(methylcarbamoyl)amino]carbonyl}adamantan-2-yl]propanamide] | 8 | 
2 | CC(C)(Oc1ccc(Cl)cc1)C(=O)N[C@H]1C2C[C@@H]3C[C@@H]1C[C@@](COCC(=O)O)(C2)C3 [2-{[(1R,3R,4S,7S)-4-[2-(4-chlorophenoxy)-2-methylpropanamido]adamantan-1-yl]methoxy}acetic acid] | 210 | 110
3 | CC(C)(Oc1ccc(Cl)cc1)C(=O)N[C@H]1C2C[C@@H]3C[C@@H]1C[C@@](C(=O)NCc1ccc(C(=O)O)cc1)(C2)C3 [4-({[(1R,3R,4S,7S)-4-[2-(4-chlorophenoxy)-2-methylpropanamido]adamantan-1-yl]formamido}methyl)benzoic acid] | 12 | 
4 | CC(C)(Oc1ccccc1)C(=O)N[C@H]1C2C[C@@H]3C[C@@H]1C[C@@](C(=O)O)(C2)C3 [(1R,3R,4S,7S)-4-(2-methyl-2-phenoxypropanamido)adamantane-1-carboxylic acid] | 119 | 
5 | CC(C)(Oc1ccc(Cl)cc1)C(=O)N[C@H]1C2C[C@@H]3C[C@@H]1C[C@@](C(=O)NCc1cncs1)(C2)C3 [(1R,3R,4S,7S)-4-[2-(4-chlorophenoxy)-2-methylpropanamido]-N-(1,3-thiazol-5-ylmethyl)adamantane-1-carboxamide] | 11 | 
6 | CC(C)(Oc1ccc(Cl)cc1)C(=O)N[C@H]1C2C[C@@H]3C[C@@H]1C[C@@](C(=O)NCc1ccncc1)(C2)C3 [(1R,3R,4S,7S)-4-[2-(4-chlorophenoxy)-2-methylpropanamido]-N-(pyridin-4-ylmethyl)adamantane-1-carboxamide] | 14 | 25
7 | CC(C)(Oc1ccc(Cl)cc1)C(=O)N[C@H]1C2C[C@@H]3C[C@@H]1C[C@@](C(=O)NCc1ccc(S(N)(=O)=O)cc1)(C2)C3 [(1R,3R,4S,7S)-4-[2-(4-chlorophenoxy)-2-methylpropanamido]-N-[(4-sulfamoylphenyl)methyl]adamantane-1-carboxamide] | 24 | 51
8 | COc1ccc(OC(C)(C)C(=O)N[C@H]2C3C[C@@H]4C[C@@H]2C[C@@](C(N)=O)(C3)C4)cc1 [(1R,3R,4S,7S)-4-[2-(4-methoxyphenoxy)-2-methylpropanamido]adamantane-1-carboxamide] | 4 | 
9 | CC(C)(Oc1ccccc1Cl)C(=O)N[C@H]1C2C[C@@H]3C[C@@H]1C[C@@](C(=O)NS(=O)(=O)c1ccccc1)(C2)C3 [(1R,3R,4S,7S)-N-(benzenesulfonyl)-4-[2-(2-chlorophenoxy)-2-methylpropanamido]adamantane-1-carboxamide] | 1000 | 500
10 | CC(C)(Oc1ccc(Cl)cc1)C(=O)N[C@H]1C2C[C@@H]3C[C@@H]1C[C@@](C(=O)NCC(N)=O)(C2)C3 [N-[(1R,2S,5R,7S)-5-[(carbamoylmethyl)carbamoyl]adamantan-2-yl]-2-(4-chlorophenoxy)-2-methylpropanamide] | 4 | 

Results, then the compound that gave them:

Row | IC50 [1] [nM] | IC50 [2] [nM] | SMILES
11 | 10 |  | CC(C)(Oc1ccc(F)cc1Cl)C(=O)N[C@H]1C2C[C@@H]3C[C@@H]1C[C@@](c1nnn[nH]1)(C2)C3 [2-(2-chloro-4-fluorophenoxy)-2-methyl-N-[(1R,2S,5R,7S)-5-(1H-1,2,3,4-tetrazol-5-yl)adamantan-2-yl]propanamide]
12 | 6 |  | CC(C)(Oc1ccc(Cl)cc1)C(=O)N[C@H]1C2C[C@@H]3C[C@@H]1C[C@@](CO)(C2)C3 [2-(4-chlorophenoxy)-N-[(1R,2S,5R,7S)-5-(hydroxymethyl)adamantan-2-yl]-2-methylpropanamide]
13 | 4 |  | CC(C)(Oc1ccccc1)C(=O)N[C@H]1C2C[C@@H]3C[C@@H]1C[C@@](C(N)=O)(C2)C3 [(1R,3R,4S,7S)-4-(2-methyl-2-phenoxypropanamido)adamantane-1-carboxamide]
14 | 28 | 96 | CC(C)(Oc1ccccc1Cl)C(=O)N[C@H]1C2C[C@@H]3C[C@@H]1C[C@@](C(=O)NS(C)(=O)=O)(C2)C3 [(1R,3R,4S,7S)-4-[2-(2-chlorophenoxy)-2-methylpropanamido]-N-methanesulfonyladamantane-1-carboxamide]
15 | 8 | 8 | CC(C)(Oc1ccccc1Cl)C(=O)N[C@H]1C2C[C@@H]3C[C@@H]1C[C@@](C(=O)O)(C2)C3 [(1R,3R,4S,7S)-4-[2-(2-chlorophenoxy)-2-methylpropanamido]adamantane-1-carboxylic acid]
16 | 51 | 15 | CC(C)(Oc1cccc(Cl)c1)C(=O)N[C@H]1C2C[C@@H]3C[C@@H]1C[C@@](C(=O)O)(C2)C3 [(1R,3R,4S,7S)-4-[2-(3-chlorophenoxy)-2-methylpropanamido]adamantane-1-carboxylic acid]
17 | 18 |  | CC(C)(Oc1ccc(Cl)cc1)C(=O)N[C@H]1C2C[C@@H]3C[C@@H]1C[C@@](C(=O)NCc1ccc(-c4nnn[nH]4)cc1)(C2)C3 [(1R,3R,4S,7S)-4-[2-(4-chlorophenoxy)-2-methylpropanamido]-N-{[4-(1H-1,2,3,4-tetrazol-5-yl)phenyl]methyl}adamantane-1-carboxamide]
18 | 3 |  | CC(C)(Oc1ccc(Cl)cc1)C(=O)N[C@H]1C2C[C@@H]3C[C@@H]1C[C@@](C(N)=O)(C2)C3 [(1R,3R,4S,7S)-4-[2-(4-chlorophenoxy)-2-methylpropanamido]adamantane-1-carboxamide]
19 | 70 |  | CC(C)(Oc1ccc(Cl)cc1)C(=O)N[C@H]1C2C[C@@H]3C[C@@H]1C[C@@](C(=O)O)(C2)C3 [(1R,3R,4S,7S)-4-[2-(4-chlorophenoxy)-2-methylpropanamido]adamantane-1-carboxylic acid]

From BindingDB's records for doi:10.1016/j.bmcl.2006.10.074 (Abbott Laboratories, 2007)
